Measurements from patent publication US20230150974A1 (Foghorn Therapeutics Inc., priority 2020, published 2023).
Counter-ions that a name gives are not always drawn.

Legend:
HiBiT-BRM = molecular target: T1, HiBiT-BRM (Homo sapiens, UniProt P51531); test: HiBiT-BRM cell-based degradation assay (Nano-Glo HiBiT Lytic Detection); settings: HeLa cells expressing HiBiT-BRM, 24 h; for DC50: read-out: BRM HiBit Degradation IC50
T1 construct: expressed in transfected cells
Outline: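 HeLa cells stably expressing HiBiT-tagged BRM were treated for 24 h, then lysed with LgBiT-containing Nano-Glo reagent and luminescence read. % degradation scaled between DMSO (high control) and 2 μM reference BRM/BRG1 degrader (low control).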

HiBit-BRG1 = molecular target: T2, HiBit-BRG1 (Homo sapiens, UniProt P51532); test: HiBit-BRG1 cell-based degradation assay (Nano-Glo HiBiT Lytic Detection); settings: HeLa cells expressing HiBit-BRG1 and LgBit, 24 h; for DC50: read-out: BRG1 HiBit Degradation IC50; for Dmax: read-out: BRG1 HiBit Degradation Maximum (%)
T2 construct: expressed in transfected cells
Outline: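 Seed 5000 HeLa HiBit-BRG1/LgBit cells per well; treat 24 h; equilibrate 15 min at room temperature; add Nano-Glo HiBiT lytic reagent, shake 10 min, read luminescence. Percent degradation is scaled between DMSO and 2 μM reference degrader wells.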

T1 sequence (P51531 whole entry): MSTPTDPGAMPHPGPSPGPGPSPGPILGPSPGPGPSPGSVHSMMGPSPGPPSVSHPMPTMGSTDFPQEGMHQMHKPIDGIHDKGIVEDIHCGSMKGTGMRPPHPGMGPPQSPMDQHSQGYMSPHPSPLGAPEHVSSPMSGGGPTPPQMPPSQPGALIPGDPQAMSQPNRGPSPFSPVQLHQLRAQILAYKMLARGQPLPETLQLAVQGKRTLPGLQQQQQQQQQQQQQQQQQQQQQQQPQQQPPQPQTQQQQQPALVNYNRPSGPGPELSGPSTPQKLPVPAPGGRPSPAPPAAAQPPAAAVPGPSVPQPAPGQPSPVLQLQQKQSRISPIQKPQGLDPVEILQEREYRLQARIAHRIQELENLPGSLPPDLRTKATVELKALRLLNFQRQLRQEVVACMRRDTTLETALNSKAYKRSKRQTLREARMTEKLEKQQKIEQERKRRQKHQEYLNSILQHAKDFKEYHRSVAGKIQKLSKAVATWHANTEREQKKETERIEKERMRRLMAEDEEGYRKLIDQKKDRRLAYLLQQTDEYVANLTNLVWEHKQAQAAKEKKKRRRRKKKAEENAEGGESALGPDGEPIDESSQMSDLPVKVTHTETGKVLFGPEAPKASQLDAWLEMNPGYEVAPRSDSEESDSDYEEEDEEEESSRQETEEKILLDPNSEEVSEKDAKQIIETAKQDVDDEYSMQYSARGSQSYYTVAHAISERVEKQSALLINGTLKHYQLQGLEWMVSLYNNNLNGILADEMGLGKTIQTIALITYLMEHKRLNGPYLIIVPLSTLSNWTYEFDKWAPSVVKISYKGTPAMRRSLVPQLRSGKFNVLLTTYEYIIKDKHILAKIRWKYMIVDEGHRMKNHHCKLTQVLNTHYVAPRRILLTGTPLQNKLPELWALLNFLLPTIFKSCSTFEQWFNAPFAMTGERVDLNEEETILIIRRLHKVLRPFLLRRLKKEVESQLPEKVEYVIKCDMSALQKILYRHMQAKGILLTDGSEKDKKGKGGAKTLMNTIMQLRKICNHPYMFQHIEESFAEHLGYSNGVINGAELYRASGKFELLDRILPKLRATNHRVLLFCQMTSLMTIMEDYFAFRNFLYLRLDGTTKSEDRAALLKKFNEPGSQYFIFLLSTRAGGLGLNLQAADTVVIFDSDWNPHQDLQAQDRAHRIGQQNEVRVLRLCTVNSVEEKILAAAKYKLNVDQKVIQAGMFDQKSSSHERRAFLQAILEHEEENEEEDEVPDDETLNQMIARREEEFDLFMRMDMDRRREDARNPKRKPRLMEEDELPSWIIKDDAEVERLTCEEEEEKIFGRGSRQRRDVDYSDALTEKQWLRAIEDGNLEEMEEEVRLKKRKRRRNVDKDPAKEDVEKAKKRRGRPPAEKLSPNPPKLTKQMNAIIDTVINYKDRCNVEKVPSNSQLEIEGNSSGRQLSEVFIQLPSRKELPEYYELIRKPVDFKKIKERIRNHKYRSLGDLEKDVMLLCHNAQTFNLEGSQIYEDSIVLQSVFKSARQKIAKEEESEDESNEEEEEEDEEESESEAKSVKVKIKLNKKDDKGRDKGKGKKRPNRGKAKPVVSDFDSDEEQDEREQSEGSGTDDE
T2 sequence (P51532 whole entry): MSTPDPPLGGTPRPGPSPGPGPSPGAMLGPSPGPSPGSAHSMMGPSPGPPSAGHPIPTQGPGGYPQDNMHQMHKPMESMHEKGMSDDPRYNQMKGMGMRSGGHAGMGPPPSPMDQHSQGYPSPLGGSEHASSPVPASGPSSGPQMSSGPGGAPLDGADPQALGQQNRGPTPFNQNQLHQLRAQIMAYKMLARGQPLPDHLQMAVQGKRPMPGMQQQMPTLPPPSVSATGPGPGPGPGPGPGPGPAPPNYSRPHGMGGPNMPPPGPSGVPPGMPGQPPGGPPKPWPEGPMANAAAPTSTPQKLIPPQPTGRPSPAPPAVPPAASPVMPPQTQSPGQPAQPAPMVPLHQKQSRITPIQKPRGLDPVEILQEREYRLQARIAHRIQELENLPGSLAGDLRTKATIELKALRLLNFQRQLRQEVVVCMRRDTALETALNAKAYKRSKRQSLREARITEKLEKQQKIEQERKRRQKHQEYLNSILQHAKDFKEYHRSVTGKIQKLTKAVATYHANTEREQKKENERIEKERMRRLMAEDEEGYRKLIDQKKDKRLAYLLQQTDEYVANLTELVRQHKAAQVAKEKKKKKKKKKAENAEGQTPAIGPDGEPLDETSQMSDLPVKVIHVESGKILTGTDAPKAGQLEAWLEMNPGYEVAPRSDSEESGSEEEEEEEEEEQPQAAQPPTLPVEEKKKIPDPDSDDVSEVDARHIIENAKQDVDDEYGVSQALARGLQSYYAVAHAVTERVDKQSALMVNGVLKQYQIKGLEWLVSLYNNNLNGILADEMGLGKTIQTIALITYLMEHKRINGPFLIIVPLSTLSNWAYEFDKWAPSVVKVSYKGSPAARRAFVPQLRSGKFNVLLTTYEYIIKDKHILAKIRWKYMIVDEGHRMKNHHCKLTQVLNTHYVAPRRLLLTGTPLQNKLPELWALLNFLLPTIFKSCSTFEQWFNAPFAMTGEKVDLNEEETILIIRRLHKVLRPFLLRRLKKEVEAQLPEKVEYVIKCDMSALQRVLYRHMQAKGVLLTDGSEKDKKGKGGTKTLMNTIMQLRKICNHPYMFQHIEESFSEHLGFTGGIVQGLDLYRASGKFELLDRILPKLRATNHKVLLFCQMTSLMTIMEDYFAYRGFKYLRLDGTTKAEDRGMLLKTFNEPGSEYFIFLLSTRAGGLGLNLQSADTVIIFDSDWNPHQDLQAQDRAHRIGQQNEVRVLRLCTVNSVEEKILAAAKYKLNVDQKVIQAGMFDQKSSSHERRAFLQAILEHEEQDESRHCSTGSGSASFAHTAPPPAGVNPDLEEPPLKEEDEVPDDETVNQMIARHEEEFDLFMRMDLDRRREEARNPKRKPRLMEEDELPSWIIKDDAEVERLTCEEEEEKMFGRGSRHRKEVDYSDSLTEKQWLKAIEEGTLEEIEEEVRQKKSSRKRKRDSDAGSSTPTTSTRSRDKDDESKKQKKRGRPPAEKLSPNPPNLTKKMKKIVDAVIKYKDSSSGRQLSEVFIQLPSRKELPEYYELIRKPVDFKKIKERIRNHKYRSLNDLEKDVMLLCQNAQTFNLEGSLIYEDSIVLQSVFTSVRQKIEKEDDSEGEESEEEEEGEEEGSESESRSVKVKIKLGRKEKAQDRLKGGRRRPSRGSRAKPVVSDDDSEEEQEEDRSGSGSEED

SMILES	DC50 (HiBiT-BRM) [µM]	DC50 (HiBit-BRG1) [µM]	Dmax (HiBit-BRG1) [%]	BRM HiBit Degradation Maximum (%) (HiBiT-BRM)
CN(CCCCCOc1cccc2c1C(=O)N(C1CCC(=O)NC1=O)C2=O)Cc1ccc(CCNc2cc(-c3ccccc3O)nnc2N)cc1 (stereo not shown) [Compound 150, 4-((5-((4-(2-((3-amino-6-(2-hydroxyphenyl)pyridazin-4-yl)amino)ethyl)benzyl)(methyl)amino)pentyl)oxy)-2-(2,6-dioxopiperidin-3-yl)isoindoline-1,3-dione, formic acid salt]	> 1	> 1	< 50	C (“C” indicates maximum degradation <50%)
Cc1ncsc1-c1ccc(CNC(=O)[C@@H]2C[C@@H](O)CN2C(=O)[C@@H](NC(=O)CCN2CCC(OC3CCN(CCC(=O)NCc4ccc(CCOc5cc(-c6ccccc6O)nnc5N)cc4)CC3)CC2)C(C)(C)C)cc1 [Compound 236, (2S,4R)-1-((S)-2-(3-(4-((1-(3-((4-(2-((3-amino-6-(2-hydroxyphenyl)pyridazin-4-yl)oxy)ethyl)benzyl)amino)-3-oxopropyl)piperidin-4-yl)oxy)piperidin-1-yl)propanamido)-3,3-dimethylbutanoyl)-4-hydroxy-N-(4-(4-methylthiazol-5-yl)benzyl)pyrrolidine-2-carboxamide]	> 1	> 1	< 50	B (“B” indicates maximum degradation ≥50%)
Cc1ncsc1-c1ccc(CNC(=O)[C@@H]2C[C@@H](O)CN2C(=O)[C@@H](NC(=O)CCCCCCCNC(=O)CN2CCN(c3cc(-c4ccccc4O)nnc3N)CC2)C(C)(C)C)cc1 [Compound 94, (2S,4R)-1-((S)-2-(8-(2-(4-(3-amino-6-(2-hydroxyphenyl)pyridazin-4-yl)piperazin-1-yl)acetamido)octanamido)-3,3-dimethylbutanoyl)-4-hydroxy-N-(4-(4-methylthiazol-5-yl)benzyl)pyrrolidine-2-carboxamide]	> 1	> 1	< 50	A (“A” indicates maximum degradation ≥75%)
CN(CCCCCOc1cccc2c1C(=O)N(C1CCC(=O)NC1=O)C2=O)Cc1ccc(CCOc2cc(-c3ccccc3O)nnc2N)cc1 (stereo not shown) [Compound 113, 4-((5-((4-(2-((3-amino-6-(2-hydroxyphenyl)pyridazin-4-yl)oxy)ethyl)benzyl)(methyl)amino)pentyl)oxy)-2-(2,6-dioxopiperidin-3-yl)isoindoline-1,3-dione]	> 0.01	> 1	< 50	A (“A” indicates maximum degradation ≥75%)

Second part, led by results:

DC50 (HiBiT-BRM) [µM]	DC50 (HiBit-BRG1) [µM]	Dmax (HiBit-BRG1) [%]	SMILES	BRM HiBit Degradation Maximum (%) (HiBiT-BRM)
> 1	> 1	< 50	Nc1nnc(-c2ccccc2O)cc1OCCc1ccc(CNCCNc2cccc3c2C(=O)N(C2CCC(=O)NC2=O)C3=O)cc1 (stereo not shown) [Compound 109, 4-[[2-([[4-(2-[[3-amino-6-(2-hydroxyphenyl)pyridazin-4-yl]oxy]ethyl)phenyl]methyl]amino)ethyl]amino]-2-(2,6-dioxopiperidin-3-yl)isoindole-1,3-dione, formic acid salt]	C (“C” indicates maximum degradation <50%)
> 0.1	> 1	< 50	Nc1nnc(-c2ccccc2O)cc1OCCc1ccc(CNC(=O)CCCCNc2cccc3c2C(=O)N(C2CCC(=O)NC2=O)C3)cc1 (stereo not shown) [Compound 155, N-(4-(2-((3-amino-6-(2-hydroxyphenyl)pyridazin-4-yl)oxy)ethyl)benzyl)-5-((2-(2,6-dioxopiperidin-3-yl)-3-oxoisoindolin-4-yl)amino)pentanamide]	A (“A” indicates maximum degradation ≥75%)
> 1	> 1	< 50	Nc1nnc(-c2ccccc2O)cc1OCCc1ccc(C(=O)NCCCCCCCCCC(=O)NCc2ccc(S(=O)(=O)Nc3cccc4c(Cl)c[nH]c34)cc2)cc1 [Compound 12, 10-[[4-(2-[[3-amino-6-(2-hydroxyphenyl)pyridazin-4-yl]oxy]ethyl)phenyl]formamido]-N-([4-[(3-chloro-1H-indol-7-yl)sulfamoyl]phenyl]methyl)decanamide]	C (“C” indicates maximum degradation <50%)
